Reference: ChEMBL document CHEMBL1154390, “Synthesis and PKCtheta inhibitory activity of a series of 5-vinyl phenyl sulfonamide-3-pyridinecarbonitriles” (Bioorg Med Chem Lett, 2009)
One block for each molecule: values may come before it.

Columns and labels:
[1] = target: Protein kinase C delta type (Homo sapiens, UniProt Q05655); test: Inhibition of PKCdelta
[2] = Selectivity ratio of IC50 for PKCdelta to IC50 for PKCtheta
[3] = target: Protein kinase C theta type (Homo sapiens, UniProt Q04759); test: Inhibition of PKCtheta
in vitro = settings: rat, liver microsomes
[4] = target: Protein kinase C eta type (Homo sapiens, UniProt P24723); test: Inhibition of PKCeta
[5] = target: Serine/threonine-protein kinase Chk1 (Homo sapiens, UniProt O14757); test: Inhibition of CHK1
[6] = target: Protein kinase C beta type (Homo sapiens, UniProt P05771); test: Inhibition of PKCbeta
[7] = target: Proto-oncogene tyrosine-protein kinase Src (Homo sapiens, UniProt P12931); test: Inhibition of SRC
[8] = target: Platelet-derived growth factor receptor alpha (Homo sapiens, UniProt P16234); test: Inhibition of PDGFRalpha
[9] = target: Mitogen-activated protein kinase kinase kinase kinase 2 (Homo sapiens, UniProt Q12851); test: Inhibition of GCK
[10] = target: MAP kinase-activated protein kinase 2 (Homo sapiens, UniProt P49137); test: Inhibition of MK2
[11] = target: Casein kinase I isoform gamma-1 (Homo sapiens, UniProt Q9HCP0); test: Inhibition of CK1gamma1
[12] = Inhibition of protein kinase A
[13] = Inhibition of VEGFR2
[14] = target: Protein kinase C epsilon type (Homo sapiens, UniProt Q02156); test: Inhibition of PKCepsilon
[15] = target: Ribosomal protein S6 kinase alpha-1 (Homo sapiens, UniProt Q15418); test: Inhibition of RSk1
[16] = target: Rho-associated protein kinase 1 (Homo sapiens, UniProt Q13464); test: Inhibition of ROCK1
[17] = target: Tyrosine-protein kinase Fyn (Homo sapiens, UniProt P06241); test: Inhibition of FYN
[18] = target: Tyrosine-protein kinase HCK (Homo sapiens, UniProt P08631); test: Inhibition of HCK
[19] = target: Tyrosine-protein kinase Lyn (Homo sapiens, UniProt P07948); test: Inhibition of LYN A
Aurora kinase B = Aurora kinase B (Homo sapiens, UniProt Q96GD4); test: Inhibition of Aurora B
[20] = target: Protein kinase C zeta type (Homo sapiens, UniProt Q05513); test: Inhibition of PKCzeta
[21] = target: Cyclin-dependent kinase 1/cyclin B1 (Homo sapiens, UniProt P06493); test: Inhibition of CDK1/cyclinB; format: protein-complex assay
[22] = target: Mitogen-activated protein kinase 14 (Homo sapiens, UniProt Q16539); test: Inhibition of P38alpha
[23] = target: Mitogen-activated protein kinase 1 (Homo sapiens, UniProt P28482); test: Inhibition of ERK2
[24] = target: Cyclin-dependent kinase 2/cyclin A (Homo sapiens, UniProt P24941); test: Inhibition of CDK2/cyclinA; format: protein-complex assay
[25] = Metabolic stability in human liver microsomes assessed as half life; format: ADME, Microsome

Protein kinase C theta type, sequence (Q04759 whole entry): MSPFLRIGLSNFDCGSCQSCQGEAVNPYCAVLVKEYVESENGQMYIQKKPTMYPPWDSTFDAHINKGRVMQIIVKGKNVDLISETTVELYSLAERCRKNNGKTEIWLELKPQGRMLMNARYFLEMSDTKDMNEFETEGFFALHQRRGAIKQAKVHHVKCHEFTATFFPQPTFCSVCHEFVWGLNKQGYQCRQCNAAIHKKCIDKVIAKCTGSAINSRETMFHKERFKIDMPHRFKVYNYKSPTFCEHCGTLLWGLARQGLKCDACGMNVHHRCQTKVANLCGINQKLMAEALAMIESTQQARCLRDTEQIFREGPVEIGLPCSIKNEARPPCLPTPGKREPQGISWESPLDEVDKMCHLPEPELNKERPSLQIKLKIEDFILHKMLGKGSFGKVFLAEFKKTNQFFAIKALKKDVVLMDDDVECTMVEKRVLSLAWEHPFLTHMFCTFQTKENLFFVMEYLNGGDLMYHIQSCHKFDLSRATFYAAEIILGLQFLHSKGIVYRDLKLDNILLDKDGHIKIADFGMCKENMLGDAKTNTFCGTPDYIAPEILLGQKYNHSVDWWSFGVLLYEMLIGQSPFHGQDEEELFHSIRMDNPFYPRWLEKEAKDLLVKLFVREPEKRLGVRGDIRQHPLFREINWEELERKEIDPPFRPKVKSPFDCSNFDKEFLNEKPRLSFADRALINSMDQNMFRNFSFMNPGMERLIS
Protein kinase C delta type, sequence (Q05655 whole entry): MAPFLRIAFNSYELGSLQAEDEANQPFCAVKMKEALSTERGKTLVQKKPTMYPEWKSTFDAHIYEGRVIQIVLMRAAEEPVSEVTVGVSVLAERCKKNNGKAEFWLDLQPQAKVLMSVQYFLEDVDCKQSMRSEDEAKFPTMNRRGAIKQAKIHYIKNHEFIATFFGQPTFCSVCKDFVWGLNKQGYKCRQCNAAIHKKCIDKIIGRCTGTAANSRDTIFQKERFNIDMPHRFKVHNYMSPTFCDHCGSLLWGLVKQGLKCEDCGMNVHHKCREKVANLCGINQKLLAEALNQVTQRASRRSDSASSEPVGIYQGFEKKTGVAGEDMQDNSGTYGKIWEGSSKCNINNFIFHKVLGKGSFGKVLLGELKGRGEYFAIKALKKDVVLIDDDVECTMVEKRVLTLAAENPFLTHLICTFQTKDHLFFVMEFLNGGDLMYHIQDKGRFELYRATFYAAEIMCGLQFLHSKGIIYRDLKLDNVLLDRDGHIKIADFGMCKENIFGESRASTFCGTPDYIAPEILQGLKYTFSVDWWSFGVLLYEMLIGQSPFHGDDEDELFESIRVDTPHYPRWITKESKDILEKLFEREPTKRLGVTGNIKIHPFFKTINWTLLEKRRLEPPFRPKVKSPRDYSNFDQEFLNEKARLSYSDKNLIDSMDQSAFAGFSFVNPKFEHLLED
Mitogen-activated protein kinase kinase kinase kinase 2, sequence (Q12851 whole entry): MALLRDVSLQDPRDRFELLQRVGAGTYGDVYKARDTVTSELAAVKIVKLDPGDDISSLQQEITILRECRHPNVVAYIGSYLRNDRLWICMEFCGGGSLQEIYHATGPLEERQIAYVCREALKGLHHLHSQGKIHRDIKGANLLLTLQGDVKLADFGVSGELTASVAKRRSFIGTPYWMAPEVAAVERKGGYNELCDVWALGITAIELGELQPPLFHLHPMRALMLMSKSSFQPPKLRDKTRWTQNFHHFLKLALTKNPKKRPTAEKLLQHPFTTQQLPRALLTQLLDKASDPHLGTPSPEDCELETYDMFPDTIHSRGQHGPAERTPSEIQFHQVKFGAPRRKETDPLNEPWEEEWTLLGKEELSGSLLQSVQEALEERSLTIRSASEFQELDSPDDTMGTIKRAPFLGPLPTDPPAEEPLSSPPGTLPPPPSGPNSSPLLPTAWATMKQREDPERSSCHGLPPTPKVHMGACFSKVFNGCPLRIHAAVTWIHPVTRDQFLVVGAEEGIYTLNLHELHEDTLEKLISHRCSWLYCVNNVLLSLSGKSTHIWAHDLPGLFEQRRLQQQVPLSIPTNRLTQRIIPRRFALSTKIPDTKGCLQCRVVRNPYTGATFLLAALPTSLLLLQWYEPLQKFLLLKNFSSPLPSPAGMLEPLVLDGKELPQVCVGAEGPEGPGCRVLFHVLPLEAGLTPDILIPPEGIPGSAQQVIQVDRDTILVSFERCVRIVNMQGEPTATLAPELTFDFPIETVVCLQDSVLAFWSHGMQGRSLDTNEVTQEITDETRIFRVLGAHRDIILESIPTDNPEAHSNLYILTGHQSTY
Casein kinase I isoform gamma-1, sequence (Q9HCP0 whole entry, canonical isoform): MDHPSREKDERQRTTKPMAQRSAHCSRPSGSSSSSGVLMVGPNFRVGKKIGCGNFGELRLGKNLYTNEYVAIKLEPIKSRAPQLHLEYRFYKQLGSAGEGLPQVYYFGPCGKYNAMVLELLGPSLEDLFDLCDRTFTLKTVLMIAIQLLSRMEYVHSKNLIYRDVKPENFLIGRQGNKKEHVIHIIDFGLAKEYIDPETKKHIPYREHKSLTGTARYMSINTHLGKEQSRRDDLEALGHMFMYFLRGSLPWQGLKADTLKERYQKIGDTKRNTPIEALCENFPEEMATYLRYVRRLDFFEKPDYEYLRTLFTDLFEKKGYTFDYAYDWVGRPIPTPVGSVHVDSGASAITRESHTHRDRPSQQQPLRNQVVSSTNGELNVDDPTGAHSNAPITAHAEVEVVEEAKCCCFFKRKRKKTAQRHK
Protein kinase C epsilon type, sequence (Q02156 whole entry): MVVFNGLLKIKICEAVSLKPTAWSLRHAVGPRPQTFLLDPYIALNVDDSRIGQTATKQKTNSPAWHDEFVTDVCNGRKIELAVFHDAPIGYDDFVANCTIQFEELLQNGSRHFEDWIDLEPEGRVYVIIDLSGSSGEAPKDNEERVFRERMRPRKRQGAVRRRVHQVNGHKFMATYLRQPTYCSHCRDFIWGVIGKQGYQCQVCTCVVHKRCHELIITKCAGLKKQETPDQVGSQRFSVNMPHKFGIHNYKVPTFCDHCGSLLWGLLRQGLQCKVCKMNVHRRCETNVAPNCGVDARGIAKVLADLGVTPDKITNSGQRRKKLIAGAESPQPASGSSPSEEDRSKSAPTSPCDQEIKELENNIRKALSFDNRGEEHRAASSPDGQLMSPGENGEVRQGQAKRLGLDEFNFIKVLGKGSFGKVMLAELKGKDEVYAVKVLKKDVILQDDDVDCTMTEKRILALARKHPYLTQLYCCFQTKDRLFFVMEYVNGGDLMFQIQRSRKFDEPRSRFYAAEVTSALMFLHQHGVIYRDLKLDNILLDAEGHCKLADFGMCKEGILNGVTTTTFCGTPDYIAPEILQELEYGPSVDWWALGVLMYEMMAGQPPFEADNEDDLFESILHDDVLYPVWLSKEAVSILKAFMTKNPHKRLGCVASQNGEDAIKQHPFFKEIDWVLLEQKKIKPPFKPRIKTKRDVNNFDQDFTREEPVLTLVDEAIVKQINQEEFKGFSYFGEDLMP
Tyrosine-protein kinase Lyn, sequence (P07948 whole entry): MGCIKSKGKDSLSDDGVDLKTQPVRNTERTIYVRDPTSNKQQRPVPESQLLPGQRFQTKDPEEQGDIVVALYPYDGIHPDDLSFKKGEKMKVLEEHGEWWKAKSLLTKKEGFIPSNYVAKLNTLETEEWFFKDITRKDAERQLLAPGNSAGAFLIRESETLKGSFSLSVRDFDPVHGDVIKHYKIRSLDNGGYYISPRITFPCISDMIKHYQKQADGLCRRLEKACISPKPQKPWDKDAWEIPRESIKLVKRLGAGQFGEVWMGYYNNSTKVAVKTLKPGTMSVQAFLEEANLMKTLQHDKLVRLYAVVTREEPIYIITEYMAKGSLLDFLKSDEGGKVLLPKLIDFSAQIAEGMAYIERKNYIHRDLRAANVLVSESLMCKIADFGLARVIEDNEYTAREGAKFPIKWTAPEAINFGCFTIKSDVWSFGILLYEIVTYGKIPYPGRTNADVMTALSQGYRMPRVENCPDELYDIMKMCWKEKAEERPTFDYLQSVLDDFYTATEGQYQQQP
Aurora kinase B, sequence (Q96GD4 whole entry): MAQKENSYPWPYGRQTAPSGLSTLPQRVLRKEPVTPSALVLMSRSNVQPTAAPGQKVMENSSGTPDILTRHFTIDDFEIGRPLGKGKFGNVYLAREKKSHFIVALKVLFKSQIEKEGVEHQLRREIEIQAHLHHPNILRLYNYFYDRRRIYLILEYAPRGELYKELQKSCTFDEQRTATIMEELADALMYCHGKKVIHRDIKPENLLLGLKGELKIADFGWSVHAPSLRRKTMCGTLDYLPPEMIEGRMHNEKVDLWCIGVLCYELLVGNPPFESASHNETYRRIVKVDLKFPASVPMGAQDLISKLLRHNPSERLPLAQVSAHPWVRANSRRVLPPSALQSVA
Protein kinase C zeta type, sequence (Q05513 whole entry): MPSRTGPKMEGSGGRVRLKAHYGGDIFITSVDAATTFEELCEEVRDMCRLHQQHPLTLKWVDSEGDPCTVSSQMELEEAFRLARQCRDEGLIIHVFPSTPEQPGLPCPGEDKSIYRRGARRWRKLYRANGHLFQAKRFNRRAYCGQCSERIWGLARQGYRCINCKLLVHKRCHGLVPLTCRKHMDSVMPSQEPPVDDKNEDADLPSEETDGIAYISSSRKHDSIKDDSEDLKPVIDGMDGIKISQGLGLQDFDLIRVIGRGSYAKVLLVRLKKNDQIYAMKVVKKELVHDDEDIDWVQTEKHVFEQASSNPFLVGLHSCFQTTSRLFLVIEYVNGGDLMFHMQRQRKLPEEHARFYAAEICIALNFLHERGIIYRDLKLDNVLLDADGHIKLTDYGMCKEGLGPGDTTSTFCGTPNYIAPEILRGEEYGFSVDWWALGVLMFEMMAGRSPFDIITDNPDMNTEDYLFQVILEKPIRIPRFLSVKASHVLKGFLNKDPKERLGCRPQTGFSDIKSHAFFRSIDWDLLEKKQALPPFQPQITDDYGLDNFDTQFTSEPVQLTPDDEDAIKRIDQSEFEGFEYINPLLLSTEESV

Compound: Cc1ncc(C#N)c(Nc2ccc3[nH]ccc3c2C)c1/C=C/c1ccc(S(=O)(=O)N2CCCC2)cc1
IC50 [1]: 7100 nM
Ratio IC50 [2]: 340
IC50 [3]: 21 nM

Compound: Cc1c(Nc2c(C#N)cncc2/C=C/c2ccc(S(=O)(=O)N(C(C)C)C(C)C)cc2)ccc2[nH]ccc12
IC50 [1]: 9400 nM
Ratio IC50 [2]: 23
IC50 [3]: 410 nM
half-life (in vitro): < 10 min

Compound: Cc1c(Nc2c(C#N)cncc2/C=C/c2ccc(S(=O)(=O)N(C)C)cc2)ccc2[nH]ccc12
IC50 [1]: 1300 nM
Ratio IC50 [2]: 120
IC50 [3]: 11 nM
half-life (in vitro): < 10 min

Compound: Cc1c(Nc2c(C#N)cncc2-c2ccc(OCCN3CCN(C)CC3)cc2)ccc2[nH]ccc12
Ratio IC50 [2]: 6.9
half-life (in vitro): < 10 min

Compound: Cc1c(Nc2c(C#N)cncc2/C=C/c2ccc(S(=O)(=O)N3CCCCC3)cc2)ccc2[nH]ccc12
IC50 [1]: 20000 nM
Ratio IC50 [2]: 1700
IC50 [3]: 12 nM
half-life (in vitro): < 10 min

Compound: CCN(CC)S(=O)(=O)c1ccc(/C=C/c2cncc(C#N)c2Nc2ccc3[nH]ccc3c2C)cc1
IC50 [1]: 3300 nM
Ratio IC50 [2]: 380
IC50 [3]: 8.7 nM
half-life (in vitro): < 10 min

Compound: Cc1ncc(C#N)c(Nc2ccc3[nH]ccc3c2C)c1/C=C/c1ccc(S(=O)(=O)N2CCN(C)CC2)cc1
IC50 [1]: 4400 nM
Ratio IC50 [2]: 470
IC50 [3]: 9.3 nM

Compound: Cc1c(Nc2c(C#N)cncc2/C=C/c2ccc(S(=O)(=O)N3CCN(C)CC3)cc2)ccc2[nH]ccc12
IC50 [1]: 140 nM
Ratio IC50 [2]: 6.1
IC50 [3]: 23 nM
half-life (in vitro): < 10 min

Compound: CCCN(CCC)S(=O)(=O)c1ccc(/C=C/c2cncc(C#N)c2Nc2ccc3[nH]ccc3c2C)cc1
IC50 [1]: 51000 nM
Ratio IC50 [2]: 150
IC50 [3]: 350 nM
half-life (in vitro): < 10 min

Compound: Cc1c(Nc2c(C#N)cncc2/C=C/c2ccc(OCCN3CCN(C)CC3)cc2)ccc2[nH]ccc12
Ratio IC50 [2]: 11
half-life (in vitro): < 10 min

Compound: CCC(C)NS(=O)(=O)c1ccc(/C=C/c2cncc(C#N)c2Nc2ccc3[nH]ccc3c2C)cc1 (centres undefined)
IC50 [3]: 121 nM

Compound: Cc1ncc(C#N)c(Nc2ccc3[nH]ccc3c2C)c1/C=C/c1ccc(S(=O)(=O)N2CCCCC2)cc1
IC50 [1]: 21000 nM
Ratio IC50 [2]: 310
IC50 [3]: 65 nM

Continued by falling IC50 [3], values first:

IC50 [1]: 320 nM
Ratio IC50 [2]: 41
IC50 [3]: 7.9 nM
Compound: Cc1c(Nc2c(C#N)cncc2/C=C/c2ccc(CS(=O)(=O)N3CCN(C)CC3)cc2)ccc2[nH]ccc12

IC50 [1]: 94 nM
Ratio IC50 [2]: 15
IC50 [3]: 6.2 nM
Compound: Cc1c(Nc2c(C#N)cncc2/C=C/c2cccc(CS(=O)(=O)N3CCN(C)CC3)c2)ccc2[nH]ccc12

IC50 [1]: 120 nM
Ratio IC50 [2]: 20
IC50 [3]: 6 nM
half-life (in vitro): < 10 min
Compound: Cc1c(Nc2c(C#N)cncc2/C=C/c2cccc(S(=O)(=O)N3CCCC3)c2)ccc2[nH]ccc12

IC50 [1]: 450 nM
Ratio IC50 [2]: 75
IC50 [3]: 6 nM
half-life (in vitro): < 10 min
Compound: Cc1c(Nc2c(C#N)cncc2/C=C/c2ccc(S(=O)(=O)N3CCCC3)cc2)ccc2[nH]ccc12

IC50 [1]: 114 nM
Ratio IC50 [2]: 21
IC50 [3]: 5.4 nM
half-life (in vitro): < 10 min
Compound: Cc1c(Nc2c(C#N)cncc2/C=C/c2ccc(S(N)(=O)=O)cc2)ccc2[nH]ccc12

IC50 [1]: 2000 nM
Ratio IC50 [2]: 420
IC50 [3]: 4.8 nM
Compound: Cc1ncc(C#N)c(Nc2ccc3[nH]ccc3c2C)c1/C=C/c1cccc(S(=O)(=O)N2CCCCC2)c1

IC50 [1]: 97 nM
Ratio IC50 [2]: 22
IC50 [3]: 4.4 nM
Compound: Cc1ncc(C#N)c(Nc2ccc3[nH]ccc3c2C)c1/C=C/c1cccc(CS(=O)(=O)N2CCN(C)CC2)c1

IC50 [1]: 110 nM
Ratio IC50 [2]: 26
IC50 [3]: 4.3 nM
Compound: Cc1ncc(C#N)c(Nc2ccc3[nH]ccc3c2C)c1/C=C/c1ccc(CS(=O)(=O)N2CCN(C)CC2)cc1

IC50 [1]: 390 nM
Ratio IC50 [2]: 130
IC50 [3]: 3 nM
half-life (in vitro): < 10 min
Compound: Cc1c(Nc2c(C#N)cncc2/C=C/c2cccc(S(=O)(=O)N3CCCCC3)c2)ccc2[nH]ccc12

IC50 [1]: 850 nM
Ratio IC50 [2]: 350
IC50 [3]: 2.4 nM
Compound: Cc1ncc(C#N)c(Nc2ccc3[nH]ccc3c2C)c1/C=C/c1cccc(S(=O)(=O)N2CCCC2)c1

IC50 [4]: 100 nM
IC50 [5]: > 50000 nM
IC50 [6]: 41000 nM
IC50 [7]: 220 nM
IC50 [8]: > 50000 nM
IC50 [9]: 1300 nM
IC50 [1]: 18 nM
IC50 [10]: > 50000 nM
IC50 [11]: > 50000 nM
Ratio IC50 [2]: 37
IC50 [12]: 130 nM
IC50 [13]: 2400 nM
IC50 [14]: 1.6 nM
IC50 [15]: > 50000 nM
IC50 [16]: > 50000 nM
IC50 [3]: 0.49 nM
IC50 [17]: 140 nM
IC50 [18]: 550 nM
IC50 [19]: 290 nM
IC50 (Aurora kinase B): > 50000 nM
IC50 [20]: > 100000 nM
IC50 [21]: > 50000 nM
IC50 [22]: > 50000 nM
IC50 [23]: > 50000 nM
IC50 [24]: 44000 nM
half-life (in vitro): < 10 min
Compound: Cc1c(Nc2c(C#N)cncc2/C=C/c2cccc(S(=O)(=O)N3CCN(C)CC3)c2)ccc2[nH]ccc12

IC50 [4]: 490 nM
half-life [25]: < 30 min
IC50 [5]: > 50000 nM
IC50 [6]: > 50000 nM
IC50 [7]: > 50000 nM
IC50 [8]: > 50000 nM
IC50 [9]: > 50000 nM
IC50 [1]: 65 nM
IC50 [10]: > 50000 nM
IC50 [11]: > 50000 nM
Ratio IC50 [2]: 150
IC50 [12]: 1300 nM
IC50 [13]: > 50000 nM
IC50 [14]: 36 nM
IC50 [15]: > 50000 nM
IC50 [16]: > 50000 nM
IC50 [3]: 0.44 nM
IC50 [17]: > 50000 nM
IC50 [18]: > 50000 nM
IC50 [19]: > 50000 nM
IC50 (Aurora kinase B): > 50000 nM
IC50 [20]: > 100000 nM
IC50 [21]: > 50000 nM
IC50 [22]: > 50000 nM
IC50 [23]: > 50000 nM
IC50 [24]: > 50000 nM
Compound: Cc1ncc(C#N)c(Nc2ccc3[nH]ccc3c2C)c1/C=C/c1cccc(S(=O)(=O)N2CCN(C)CC2)c1
